The target in one data set is human P-gp (Homo sapiens, UniProt P08183). It is filed as in vitro ADME. To be noted: LLC-PK1.
For another data set, the target named is mouse P-gp (Mus musculus, UniProt P21447). It is filed as in vitro ADME. The note with it: LLC-PK1.
Data set [1] in a line: Kinetic lipid membrane binding assay. The format is in vitro ADME, porcine. To be noted: pig, pH 7.4.
The next data set has as its system P-gp. To be noted: cited from earlier work.
The conditions of data set [2]: rat plasma; from FDA pharmacology reviews; cited from earlier work.
The conditions of data set [3]: cited from earlier work; for Cave,ss, reported clinical concentration: patients, efficacious dose.
A short description of data set [4]: Brain distribution study following i.v. bolus and i.v. infusion in rats. To be noted: rat; for δ brain concentration at SS / δ plasma concentration at SS: difference between the two time points, (SD).
Data set [5] is described as follows: Plasma protein binding by equilibrium dialysis, human plasma. The format is in vitro ADME. To be noted: pH 7.5.
Data set [6] can be described thus: Plasma protein binding by equilibrium dialysis, mouse plasma. The format is in vitro ADME. The note with it: pH 7.5.
Data set [7] can be described thus: Plasma protein binding, rat plasma. To be noted: pH 7.5. It is filed as in vitro ADME.
Data set [8] deals with KM12-Luc intracranial tumor. The experiment in a line: Efficacy in KM12-Luc intracranial tumor xenograft mouse model. It is filed as in vivo, athymic nu/nu mice. To be noted: 28 days.
Data set [9] in a line: Plasma pharmacokinetics in KM12-Luc ITC tumor-bearing mice. To be noted: for AUC(0-t): Balb/c nude, mouse, in vivo, po. The format is in vivo, Balb/c nude mice.
Data set [10] in a line: Single oral-dose in vivo PK study of rats. To be noted: rat.
A further data set has as its system BNN2 and BNN4 gliomas. To be noted: clinically relevant systemic exposures; cited from earlier work.
For the next data set, the system named is TRKA/B/C. The note with it: read-out: IC50 against TRKA/B/C; cited from earlier work.
The test system of data set [11] is breast cancer resistance protein (BCRP). The note with it: cited from earlier work.
Where [12] appears, read: recommended human oral dose of 600 mg/kg q.d.

mouse P-gp, sequence (P21447 whole entry): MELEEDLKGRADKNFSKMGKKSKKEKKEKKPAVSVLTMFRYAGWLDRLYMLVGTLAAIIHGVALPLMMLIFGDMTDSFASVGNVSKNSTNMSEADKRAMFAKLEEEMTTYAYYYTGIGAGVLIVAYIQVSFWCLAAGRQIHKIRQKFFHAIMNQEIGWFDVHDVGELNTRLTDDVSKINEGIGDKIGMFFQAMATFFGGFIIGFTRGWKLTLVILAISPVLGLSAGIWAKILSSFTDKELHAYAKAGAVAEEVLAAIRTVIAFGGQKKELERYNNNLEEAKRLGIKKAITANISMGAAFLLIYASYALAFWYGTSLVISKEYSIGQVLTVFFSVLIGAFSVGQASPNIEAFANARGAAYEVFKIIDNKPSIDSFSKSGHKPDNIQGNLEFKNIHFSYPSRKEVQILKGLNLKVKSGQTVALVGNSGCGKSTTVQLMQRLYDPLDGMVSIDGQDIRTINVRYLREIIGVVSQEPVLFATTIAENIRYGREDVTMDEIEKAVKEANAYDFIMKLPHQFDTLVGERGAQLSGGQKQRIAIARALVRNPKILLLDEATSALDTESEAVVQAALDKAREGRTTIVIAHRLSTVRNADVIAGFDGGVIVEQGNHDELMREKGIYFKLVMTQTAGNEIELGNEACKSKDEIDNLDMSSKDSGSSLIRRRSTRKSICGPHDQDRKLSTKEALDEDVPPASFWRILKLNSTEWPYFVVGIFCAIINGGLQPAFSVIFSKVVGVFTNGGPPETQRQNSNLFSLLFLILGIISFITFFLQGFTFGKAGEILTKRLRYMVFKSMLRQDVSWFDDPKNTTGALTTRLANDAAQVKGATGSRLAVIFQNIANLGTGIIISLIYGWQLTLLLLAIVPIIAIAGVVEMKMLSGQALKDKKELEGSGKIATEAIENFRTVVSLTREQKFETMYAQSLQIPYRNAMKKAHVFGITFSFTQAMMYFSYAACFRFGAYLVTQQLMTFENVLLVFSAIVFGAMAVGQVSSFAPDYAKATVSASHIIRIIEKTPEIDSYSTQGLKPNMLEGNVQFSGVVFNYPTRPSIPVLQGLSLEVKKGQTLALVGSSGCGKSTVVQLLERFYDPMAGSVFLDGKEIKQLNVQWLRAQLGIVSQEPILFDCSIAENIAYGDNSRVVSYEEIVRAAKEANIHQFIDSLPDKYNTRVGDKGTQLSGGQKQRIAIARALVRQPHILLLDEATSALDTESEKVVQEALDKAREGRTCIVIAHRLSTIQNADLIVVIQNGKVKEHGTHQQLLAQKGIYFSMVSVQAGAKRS
human P-gp, sequence (P08183 whole entry): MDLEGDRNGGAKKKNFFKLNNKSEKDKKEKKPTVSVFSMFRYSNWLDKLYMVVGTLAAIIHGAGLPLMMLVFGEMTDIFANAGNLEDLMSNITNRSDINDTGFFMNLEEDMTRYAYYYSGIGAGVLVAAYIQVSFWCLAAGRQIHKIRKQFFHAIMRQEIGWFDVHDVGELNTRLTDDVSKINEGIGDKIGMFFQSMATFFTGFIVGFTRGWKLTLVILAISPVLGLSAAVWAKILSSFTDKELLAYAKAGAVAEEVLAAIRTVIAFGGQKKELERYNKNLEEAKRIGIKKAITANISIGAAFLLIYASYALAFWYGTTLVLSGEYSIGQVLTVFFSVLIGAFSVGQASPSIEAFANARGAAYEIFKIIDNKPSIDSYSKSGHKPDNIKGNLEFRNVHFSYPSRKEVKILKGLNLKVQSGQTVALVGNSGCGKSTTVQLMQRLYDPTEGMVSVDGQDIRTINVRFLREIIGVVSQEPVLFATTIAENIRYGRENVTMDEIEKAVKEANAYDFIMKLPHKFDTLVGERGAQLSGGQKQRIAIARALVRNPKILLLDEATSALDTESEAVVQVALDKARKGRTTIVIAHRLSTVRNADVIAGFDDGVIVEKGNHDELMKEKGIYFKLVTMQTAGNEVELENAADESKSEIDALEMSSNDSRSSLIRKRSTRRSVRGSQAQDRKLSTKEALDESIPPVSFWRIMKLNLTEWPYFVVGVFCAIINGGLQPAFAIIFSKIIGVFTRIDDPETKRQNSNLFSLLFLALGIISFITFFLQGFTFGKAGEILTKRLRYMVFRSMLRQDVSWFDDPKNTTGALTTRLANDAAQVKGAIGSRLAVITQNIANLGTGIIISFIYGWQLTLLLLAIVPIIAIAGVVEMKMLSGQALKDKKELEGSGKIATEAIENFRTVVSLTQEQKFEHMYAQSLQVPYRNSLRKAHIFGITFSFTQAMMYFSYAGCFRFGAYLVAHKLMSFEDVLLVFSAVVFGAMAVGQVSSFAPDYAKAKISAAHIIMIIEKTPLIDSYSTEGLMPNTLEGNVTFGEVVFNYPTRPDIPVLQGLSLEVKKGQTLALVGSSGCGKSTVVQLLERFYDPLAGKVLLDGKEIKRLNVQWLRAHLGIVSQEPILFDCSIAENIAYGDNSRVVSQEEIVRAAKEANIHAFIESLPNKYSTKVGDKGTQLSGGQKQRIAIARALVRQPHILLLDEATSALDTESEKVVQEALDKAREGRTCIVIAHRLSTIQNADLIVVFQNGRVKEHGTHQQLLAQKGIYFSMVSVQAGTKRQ

With `C[C@@H](Oc1cc(-c2cnn(C3CCNCC3)c2)cnc1N)c1c(Cl)ccc(F)c1Cl` [Crizotinib, crizotinib], at human P-gp, the apparent permeability from apical to basolateral (Papp A→B) at 3.5 h, 1 µM turned out to be 1.38 ± 0.03 ×10⁻⁶ cm/s and the Papp B→A at 3.5 h, 1 µM turned out to be 38.8 ± 1.7 ×10⁻⁶ cm/s. At mouse P-gp, the Papp A→B at 3.5 h, 1 µM was 1.2 ± 0.15 ×10⁻⁶ cm/s and the apparent permeability from basolateral to apical (Papp B→A) at 3.5 h, 1 µM turned out to be 34.4 ± 1.68 ×10⁻⁶ cm/s. The half-life at 10 µM in [1] turned out to be 7.4 min. Besides, in the data set on P-gp, the “known substrate for P-gp” value was “known substrates for P-gp”. Besides, the Fu in plasma in data set [2] is given as 0.057. Moreover, the “Cave,ss, reported clinical concentration” value in data set [3] is on record as 874 nM. In [4] (male, Sprague Dawley, in vivo), this compound had a Kp at 5 h of 0.041 and a Kp at 6 h of 0.028. In addition, in data set [4], the “δ brain concentration at SS” value is 87 (12.1–131) nM and the “δ plasma concentration at SS” value was 12 (47.9–53.7) nM.

As to `C[C@H]1O[C@@H](O[C@H]2[C@@H](O)C[C@H](O[C@H]3[C@@H](O)C[C@H](O[C@H]4CC[C@@]5(C)[C@H](CC[C@@H]6[C@@H]5C[C@@H](O)[C@]5(C)[C@@H](C7=CC(=O)OC7)CC[C@]65O)C4)O[C@@H]3C)O[C@@H]2C)C[C@H](O)[C@@H]1O` [Digoxin, digoxin], on human P-gp, the apparent permeability from basolateral to apical (Papp B→A) at 3.5 h, 1 µM came out at 12.1 ± 0.73 ×10⁻⁶ cm/s and the efflux ratio at 3.5 h, 1 µM was determined as 11. Besides, on mouse P-gp, the apical-to-basolateral permeability (Papp A→B) at 3.5 h, 1 µM is 1.22 ± 0.1 ×10⁻⁶ cm/s; the Papp B→A at 3.5 h, 1 µM worked out at 12.5 ± 0.28 ×10⁻⁶ cm/s; the efflux ratio at 3.5 h, 1 µM amounted to 10.

For `CN1CCN(c2ccc(C(=O)Nc3n[nH]c4ccc(Cc5cc(F)cc(F)c5)cc34)c(NC3CCOCC3)c2)CC1` [Entrectinib, entrectinib], the results for the apparent permeability from apical to basolateral (Papp A→B) at 3.5 h, 1 µM at human P-gp and at mouse P-gp were 1.35 ± 0.34 ×10⁻⁶ cm/s and 0.99 ± 0.04 ×10⁻⁶ cm/s, respectively. The Papp B→A at 3.5 h, 1 µM turned out to be 19.7 ± 0.5 ×10⁻⁶ cm/s on human P-gp and 25.5 ± 1.9 ×10⁻⁶ cm/s on mouse P-gp. Further, the half-life at 10 µM in data set [1] amounted to 9.6 min. Moreover, the figures for the fraction unbound at 5 h in [5], in data set [6] and in data set [7] were 0.0022 ± 0.0005, 0.0034 ± 0.0003 and 0.0032 ± 0.0009, respectively. Further, the “Survival through day 28” value in [8] (1 mg/kg b.i.d. oral) came out at 0%; in data set [8] (5 mg/kg b.i.d. oral), 11%; in data set [8] (10 mg/kg q.d. oral) it was 67%; in [8] (15 mg/kg b.i.d. oral), 100%; in data set [8] (30 mg/kg q.d. oral), 100%; in data set [8] (60 mg/kg b.i.d. oral), 100%. Further, the Tolerability entry in data set [8] (all dose levels tested (1, 5, 15, 60 mg/kg b.i.d.; 10, 30 mg/kg q.d.)) is reported as “well tolerated”. For the same compound, the AUC(0-t) was 1.3 µM·h in [9] (2 mg/kg/day); 11.3 µM·h in data set [9] (10 mg/kg/day); 24.5 to 54.8 µM·h in data set [9] (30 mg/kg); 38.3 µM·h in [9] (30 mg/kg/day); 45.3 µM·h in data set [9] (60 mg/kg/day); 99.9 µM·h in data set [9] (120 mg/kg/day). In addition, the “average plasma concentration (AUC24h/24 hours)” value in data set [9] (oral, daily dose of 30 mg/kg) is ~ 1.6 µM. For the same compound, the Kp in [10] (brain / plasma, po, 20 mg/kg) is 0.185. Also, the “concentration in the CSF” value in [10] (single oral dose 20 mg/kg, inferior to the LLOQ, data not shown) was under 1 nM. In addition, in the data set on BNN2 and BNN4 gliomas, the “antitumor effect in intracranial NTRK1 fusion-positive glioma model” value was “tumor growth inhibition and full survival benefit”. In addition, in [3], the “Cave,ss, reported clinical concentration” value is 2000 nM. In addition, the “AUC24h at SS in patients” value in [3] (setting [12]) is 48 µM·h. Besides, the “estimated average plasma concentration in patients” value in data set [3] (setting [12]) is given as “approximately 2.0 µM”. Moreover, the Kp at 5 h in [4] (male, Sprague Dawley, in vivo, Measured CSF/Cu,p ratio, 5 h) was 0.25. Moreover, in data set [4] (male, Sprague Dawley, in vivo, Measured CSF/Cu,p ratio, 6 h), the Kp at 6 h was 0.18. Besides, the figures for the “δ brain concentration at SS” value in data set [4] and in data set [4] (listed as entrectinib) were 276 (71.2–186) nM and 276 nM, respectively. Moreover, the “δ plasma concentration at SS” value is on record as 140 (109–430) nM in [4] and 140 nM in data set [4] (listed as entrectinib).

For `O=C(Nc1cnn2ccc(N3CCC[C@@H]3c3cc(F)ccc3F)nc12)N1CC[C@H](O)C1` [Larotrectinib, larotrectinib], on human P-gp, the Papp A→B at 3.5 h, 1 µM is 1.85 ×10⁻⁶ cm/s; the apparent permeability from basolateral to apical (Papp B→A) at 3.5 h, 1 µM was 18.2 ± 3.7 ×10⁻⁶ cm/s; the efflux ratio at 3.5 h, 1 µM worked out at 10. Also, at mouse P-gp, the Papp A→B at 3.5 h, 1 µM is 0.82 ± 0.07 ×10⁻⁶ cm/s; the Papp B→A at 3.5 h, 1 µM came out at 16.1 ± 0.7 ×10⁻⁶ cm/s; the efflux ratio at 3.5 h, 1 µM turned out to be 20. The compound further gave a half-life at 10 µM in [1] of 6.2 min. In addition, the “known substrate for P-gp” value in the data set on P-gp was “known substrates for P-gp”. Besides, the Fu in plasma in data set [2] was 0.349. In the data set with TRKA/B/C, the IC50 is 5 to 11 nM. For the same compound, the “substrate of breast cancer resistance protein (BCRP)” value in [11] is “substrate”. Moreover, the “Cave,ss, reported clinical concentration” value in data set [3] was 423 nM. In data set [4] (male, Sprague Dawley, in vivo), the Kp at 4 h is 0.027 and the Kp at 5 h was found to be 0.031. In data set [4], the “δ brain concentration at SS” value is on record as 1.6 (3.74–5.60) nM and the “δ plasma concentration at SS” value is recorded as 2 (46.3–82.2) nM.

(Values after publication PMC7283026 (Neuro-Oncology, 2020).)
